# Test results as given in PubChem BioAssay (NCI).
#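 96-well plates; 48 h exposure; 5 concentrations. Endpoints by linear interpolation between flanking doses. Not reached: highest tested concentration assigned. The concentration for 50% growth inhibition is given as GI50. TGI: total growth inhibition.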
# How the values were obtained:
# Assay in all cases: inhibition of tumour cell growth, NCI panel, 48 h
# [1] = test system: 786-0 renal
# [2] = test system: A498 renal
# [3] = test system: A549 NSCLC
# [4] = test system: ACHN renal
# [5] = test system: BT-549 breast
# [6] = test system: CAKI-1 renal
# [7] = test system: CCRF-CEM leukemia
# [8] = test system: COLO 205 colon
# [9] = test system: DU-145 prostate
# [10] = test system: EKVX NSCLC
# [11] = test system: HCC-2998 colon
# [12] = test system: HCT-116 colon
# [13] = test system: HCT-15 colon
# [14] = test system: HL-60(TB) leukemia
# [15] = test system: HOP-62 NSCLC
# [16] = test system: HOP-92 NSCLC
# [17] = test system: HS 578T breast
# [18] = test system: HT29 colon
# [19] = test system: IGROV1 ovarian
# [20] = test system: K-562 leukemia
# [21] = test system: KM12 colon
# [22] = test system: LOX IMVI melanoma
# [23] = test system: M14 melanoma
# [24] = test system: MALME-3M melanoma
# [25] = test system: MCF7 breast
# [26] = test system: MDA-MB-231 breast
# [27] = test system: MDA-MB-435
# [28] = test system: MOLT-4 leukemia
# [29] = test system: NCI-H226 lung
# [30] = test system: NCI-H23 lung
# [31] = test system: NCI-H460 lung
# [32] = test system: NCI-H522 lung
# [33] = test system: NCI/ADR-RES ovarian
# [34] = test system: OVCAR-3 ovarian
# [35] = test system: OVCAR-4 ovarian
# [36] = test system: OVCAR-5 ovarian
# [37] = test system: OVCAR-8 ovarian
# [38] = test system: PC-3 prostate
# [39] = test system: RPMI-8226 leukemia
# [40] = test system: RXF 393 renal
# [41] = test system: SF-268 CNS
# [42] = test system: SF-295 CNS
# [43] = test system: SF-539 CNS
# [44] = test system: SK-MEL-2 melanoma
# [45] = test system: SK-MEL-28 melanoma
# [46] = test system: SK-MEL-5 melanoma
# [47] = test system: SK-OV-3 ovarian
# [48] = test system: SN12C renal
# [49] = test system: SNB-19 CNS
# [50] = test system: SNB-75 CNS
# [51] = test system: SR leukemia
# [52] = test system: SW-620 colon
# [53] = test system: T-47D breast
# [54] = test system: TK-10 renal
# [55] = test system: U251 CNS
# [56] = test system: UACC-257 melanoma
# [57] = test system: UACC-62 melanoma
# [58] = test system: UO-31 renal
structure (smiles),measurement,setting,value
CN1CCN(Cc2ccc(NC(=O)c3cncc(C#Cc4cnc5[nH]ncc5c4)c3)cc2C(F)(F)F)CC1,GI50,[1],3.55 µM
same,TGI,[1],27 µM
same,GI50,[2],1.96 µM
same,TGI,[2],15 µM
same,GI50,[3],4.31 µM
same,TGI,[3],39.5 µM
same,GI50,[4],0.888 µM
same,TGI,[4],10.8 µM
same,GI50,[5],3.81 µM
same,TGI,[5],16.7 µM
same,GI50,[6],0.52 µM
same,TGI,[6],10.9 µM
same,GI50,[7],3.64 µM
same,TGI,[7],66.6 µM
same,GI50,[8],1.87 µM
same,TGI,[8],13.2 µM
same,GI50,[9],1.54 µM
same,TGI,[9],16.4 µM
same,GI50,[10],2.72 µM
same,TGI,[10],18 µM
same,GI50,[11],4.51 µM
same,TGI,[11],18.6 µM
same,GI50,[12],0.737 µM
same,TGI,[12],12.8 µM
same,GI50,[13],2.97 µM
same,TGI,[13],13.6 µM
same,GI50,[14],0.695 µM
same,TGI,[14],13.2 µM
same,GI50,[15],4.06 µM
same,TGI,[15],16.6 µM
same,GI50,[16],1.32 µM
same,TGI,[16],6.02 µM
same,GI50,[17],1.27 µM
same,TGI,[17],13.9 µM
same,GI50,[18],1.23 µM
same,TGI,[18],13.7 µM
same,GI50,[19],0.685 µM
same,TGI,[19],13.1 µM
same,TGI,[20],> 100 µM
same,GI50,[21],0.107 µM
same,TGI,[21],12.1 µM
same,GI50,[22],0.618 µM
same,TGI,[22],2.38 µM
same,GI50,[23],0.524 µM
same,TGI,[23],6.6 µM
same,GI50,[24],0.422 µM
same,TGI,[24],2.81 µM
same,GI50,[25],3.9 µM
same,TGI,[25],18.5 µM
same,GI50,[26],1.11 µM
same,TGI,[26],6.55 µM
same,GI50,[27],1.22 µM
same,TGI,[27],14.5 µM
same,GI50,[28],1.81 µM
same,TGI,[28],22.4 µM
same,GI50,[29],0.704 µM
same,TGI,[29],9.53 µM
same,GI50,[30],2.28 µM
same,TGI,[30],16.6 µM
same,GI50,[31],1.3 µM
same,TGI,[31],13.9 µM
same,GI50,[32],1 µM
same,TGI,[32],11.3 µM
same,GI50,[33],7.07 µM
same,TGI,[33],42.1 µM
same,GI50,[34],3.04 µM
same,TGI,[34],16.5 µM
same,GI50,[35],3.03 µM
same,TGI,[35],25.8 µM
same,GI50,[36],3.24 µM
same,TGI,[36],17.4 µM
same,GI50,[37],4.26 µM
same,TGI,[37],20.3 µM
same,GI50,[38],3.7 µM
same,TGI,[38],60.9 µM
same,GI50,[39],4.03 µM
same,TGI,[39],50.3 µM
same,GI50,[40],0.612 µM
same,TGI,[40],5.68 µM
same,GI50,[41],2.54 µM
same,TGI,[41],16.8 µM
same,GI50,[42],3.13 µM
same,TGI,[42],16.3 µM
same,GI50,[43],0.925 µM
same,TGI,[43],4.99 µM
same,GI50,[44],0.535 µM
same,TGI,[44],2.78 µM
same,GI50,[45],1.7 µM
same,TGI,[45],8.66 µM
same,GI50,[46],2.71 µM
same,TGI,[46],12.6 µM
same,GI50,[47],1.79 µM
same,TGI,[47],13.5 µM
same,GI50,[48],1.82 µM
same,TGI,[48],11.4 µM
same,GI50,[49],8.72 µM
same,TGI,[49],21.4 µM
same,GI50,[50],3.4 µM
same,TGI,[50],18.3 µM
same,GI50,[51],0.851 µM
same,TGI,[51],11.4 µM
same,GI50,[52],1.65 µM
same,TGI,[52],16.2 µM
same,GI50,[53],3.2 µM
same,TGI,[53],23 µM
same,GI50,[54],3.45 µM
same,TGI,[54],17.9 µM
same,GI50,[55],4.36 µM
same,TGI,[55],25.4 µM
same,GI50,[56],2.86 µM
same,TGI,[56],17 µM
same,GI50,[57],1.09 µM
same,TGI,[57],5.56 µM
same,GI50,[58],3.23 µM
same,TGI,[58],10.8 µM
O=C(CCCCCCNC(=O)C(O)(O)C(F)(F)F)Nc1ncc(-c2ccccc2)s1,GI50,[1],3.8 µM
same,TGI,[1],> 23.5 µM
same,GI50,[2],0.493 µM
same,TGI,[2],5.68 µM
same,GI50,[3],5.96 µM
same,TGI,[3],> 23.5 µM
same,GI50,[4],3.56 µM
same,TGI,[4],15.3 µM
same,GI50,[5],2.47 µM
same,TGI,[5],16.6 µM
same,GI50,[6],5.6 µM
same,TGI,[6],> 23.5 µM
same,GI50,[7],2.93 µM
same,TGI,[7],> 23.5 µM
same,GI50,[8],3.5 µM
same,TGI,[8],10.5 µM
same,GI50,[9],5.26 µM
same,TGI,[9],> 23.5 µM
same,GI50,[10],8.16 µM
same,TGI,[10],> 23.5 µM
same,GI50,[11],4.71 µM
same,TGI,[11],13.5 µM
same,GI50,[12],0.7 µM
same,TGI,[12],> 23.5 µM
same,GI50,[13],3.99 µM
same,TGI,[13],10.5 µM
same,GI50,[14],3.53 µM
same,TGI,[14],> 23.5 µM
same,GI50,[15],4.93 µM
same,TGI,[15],> 23.5 µM
same,GI50,[16],0.695 µM
same,TGI,[16],4.26 µM
same,GI50,[17],2.62 µM
same,TGI,[17],18.4 µM
same,GI50,[18],2.72 µM
same,TGI,[18],> 23.5 µM
same,GI50,[19],3.23 µM
same,TGI,[19],9.98 µM
same,GI50,[20],1.26 µM
same,TGI,[20],> 23.5 µM
same,GI50,[21],4.51 µM
same,TGI,[21],> 23.5 µM
same,GI50,[22],2.52 µM
same,TGI,[22],5.79 µM
same,GI50,[23],5.32 µM
same,TGI,[23],> 23.5 µM
same,GI50,[24],1.79 µM
same,TGI,[24],14.2 µM
same,GI50,[25],7.19 µM
same,TGI,[25],> 23.5 µM
same,GI50,[26],2.48 µM
same,TGI,[26],14.9 µM
same,GI50,[27],4.45 µM
same,TGI,[27],> 23.5 µM
same,GI50,[28],1.3 µM
same,TGI,[28],> 23.5 µM
same,GI50,[29],5.58 µM
same,TGI,[29],> 23.5 µM
same,GI50,[30],4.56 µM
same,TGI,[30],> 23.5 µM
same,GI50,[31],2.57 µM
same,TGI,[31],> 23.5 µM
same,GI50,[32],3.67 µM
same,TGI,[32],15.6 µM
same,GI50,[33],4.27 µM
same,TGI,[33],17.1 µM
same,GI50,[34],2.38 µM
same,TGI,[34],5.97 µM
same,GI50,[35],11.1 µM
same,TGI,[35],> 23.5 µM
same,GI50,[36],2.07 µM
same,TGI,[36],13.6 µM
same,GI50,[37],2.9 µM
same,TGI,[37],> 23.5 µM
same,GI50,[38],3.39 µM
same,TGI,[38],> 23.5 µM
same,GI50,[39],1.96 µM
same,TGI,[39],> 23.5 µM
same,GI50,[41],5.58 µM
same,TGI,[41],17.8 µM
same,GI50,[42],3.49 µM
same,TGI,[42],8.88 µM
same,GI50,[43],5.63 µM
same,TGI,[43],> 23.5 µM
same,GI50,[44],3.64 µM
same,TGI,[44],14.6 µM
same,GI50,[45],3.29 µM
same,TGI,[45],> 23.5 µM
same,GI50,[46],3.46 µM
same,TGI,[46],7.22 µM
same,GI50,[47],3.51 µM
same,TGI,[47],17.6 µM
same,GI50,[48],3.75 µM
same,TGI,[48],> 23.5 µM
same,GI50,[49],4.81 µM
same,TGI,[49],22 µM
same,GI50,[50],1.33 µM
same,TGI,[50],> 23.5 µM
same,GI50,[51],1.01 µM
same,TGI,[51],> 23.5 µM
same,GI50,[52],2.4 µM
same,TGI,[52],9.91 µM
same,GI50,[53],3.73 µM
same,TGI,[53],> 23.5 µM
same,GI50,[54],0.679 µM
same,TGI,[54],> 23.5 µM
same,GI50,[55],3.07 µM
same,TGI,[55],10.8 µM
same,GI50,[56],4.91 µM
same,TGI,[56],> 23.5 µM
same,GI50,[57],1.65 µM
same,TGI,[57],5.61 µM
same,GI50,[58],3.72 µM
same,TGI,[58],14 µM
